Results taken from patent US20220016277A1, “MACROCYCLIC COMPLEXES OF RADIONUCLIDES AND THEIR USE IN RADIOTHERAPY OF CANCER” (Cornell University, priority 2018, published 2022).

Tests used:
[1] = Kinetic inertness of ^225Ac complexes: challenge with excess La^3+; format: physicochemical; conditions: 50-fold excess of La^3+; macropa 0.59 μM; RT; over 7 days
Method: Kinetic Inertness of ^225Ac Complexes of Macropa and DOTA.
General. Stock solutions of La(NO3)3 (0.001 M or 0.1 M) were prepared in H2O. To the radiolabeled samples containing macropa (10 μL of 10^−5M stock; 1.0×10^−10 moles) or DOTA (10 μL of 10^_3M stock; 1.0×10^−8 moles) and ^225Ac (10 μL, 26 kBq) in NH4OAc buffer (pH 6, 0.15 M, 150 μL), a 50-fold mole excess of La^3+ was added (5 μL of 0.001 M or 0.1 M stock were added to solutions containing macropa and DOTA, respectively). The solutions were kept at room temperature and analyzed by iTLC at several time points over the course of 8 days. The iTLC plates were developed using citric acid (0.05 M, pH 5) as the eluent. Under these conditions, [^225Ac(macropa)]^+ and [^225Ac(DOTA)]^− remained at the baseline (RF=0) and any unchelated ^225Ac (^225Ac-citrate) migrated with the solvent front (RF=1). Percent of complex remaining intact was calculated by integrating area under the peaks on the radiochromatogram and dividing the counts associated with the ^225Ac-complex (RF=0) by the total counts integrated along the length of the iTLC plate.
The long half-life of ^225Ac necessitates its stable complex retention in vivo to avoid off-target damage to normal tissues arising from the release of free ^225Ac^3+. Furthermore, the stability of ^225Ac complexes against transmetalation and transchelation needs to be high. […]

[2] = Stability of [^225Ac(macropa)]^+ in human serum; format: in vitro ADME
Method: Transmetalation by La^3+. [^225Ac(macropa)]^+ and [^225Ac(DOTA)] were prepared using 10^−5 M and 10^−3 M stock solutions (10 μL) of macropa and DOTA, respectively, to give final ligand concentrations of 5.9×10^−7 M (macropa) and 5.9×10^−5 M (DOTA). After confirming a radiochemical yield of >90% by TLC using 0.4 M sodium citrate (pH 4) containing 10% MeOH as the mobile phase, 160 μL of human serum (an equal volume based on labeling reaction volume) were added to each radiolabeled solution. A control solution was also prepared in which water was substituted for ligand. The solutions were monitored over the course of 8 days by iTLC. The plates were developed with EDTA (50 mM, pH 5) as the eluent. Under these conditions, [^225Ac(macropa)]^+ and [^225Ac(DOTA)]^− complexes remained at the baseline (RF=0) and any ^225Ac (^225Ac-EDTA) that had been transchelated by serum migrated with the solvent front (RF=1). Percent of complex remaining intact was calculated.
The long half-life of ^225Ac necessitates its stable complex retention in vivo to avoid off-target damage to normal tissues arising from the release of free ^225Ac^3+. Furthermore, the stability of ^225Ac complexes against transmetalation and transchelation needs to be high. To determine the kinetic inertness, [^225Ac(macropa)]^+ was challenged with La^3+ because of the established high affinity of macropa for this metal ion. […]

Compound: O=C([O-])c1cccc(CN2CCOCCOCCN(Cc3cccc(C(=O)[O-])n3)CCOCCOCC2)n1.[225Ac+3] [[^225Ac(macropa)]^+]
- ^225Ac complex remaining intact (radio-TLC) [1]: 98%
- time ^225Ac^3+ remains complexed in human serum (radio-TLC) [2]: at least 8 days
